This assay has as its target T1, HER-2 (Homo sapiens, UniProt P04626).
T1 construct: endogenous in cells; host or cells: Calu-3 (human non-small-cell lung cancer, ATCC HTB-55)
Kind of assay: Inhibition of HER-2 phosphorylation in Calu-3 tumor cell line. The class given is cell-based. The conditions noted are these: compound concentration 1 μM; Calu-3 cells, 16 h incubation; pY 1248 in HER-2; relative to DMSO control; read-out: Percent inhibition of HER-2-phosphorylation. The procedure:
Inhibition of HER-2 Phosphorylation in Calu-3 Tumor Cell Line
2×10^5 Calu-3 cells (Non-Small-Cell Lung Cancer cells, ATTC HTB-55) per well were plated in a 12-well plate. After 4 days cells were starved for 16 h in Dulbecco's Modified Eagle Medium (DMEM)/0.5% Fetal Calf Serum (FCS)/1% Glutamine. During this 16 h period cells were incubated with a solution of the test compound in dimethylsulfoxide (DMSO), so that the final concentration of the compound is 1 μM and the final volume of DMSO is 0.5%. […] Cell lysates were analyzed on a Sodium Dodecyl Sulfate Polyacrylamide Gel Electrophoresis (SDS PAGE) and after transfer to a nitrocellulose membrane detected with an antibody specifically recognizing the pY 1248 in HER-2 (phosphorylated tyrosine residue 1248 of human […]). After incubation with an anti rabbit antibody coupled to POD (peroxidase available from Biorad, Munich, Germany) signals were detected by chemiluminescence (ECL, Amersham). Inhibition of HER-2 phosphorylation is calculated as a percentage of the control, which is treated with DMSO only. The percentage of the inhibition is calculated according to the following formula: Inhibition in %=100−(Phosphorylated-HER2-Signal of Test Sample* 100/Phosphorylated-HER2-Signal DMSO-control).

Structures are written as SMILES. Bounds are passed on as bounds.

T1 sequence (P04626 23-1255): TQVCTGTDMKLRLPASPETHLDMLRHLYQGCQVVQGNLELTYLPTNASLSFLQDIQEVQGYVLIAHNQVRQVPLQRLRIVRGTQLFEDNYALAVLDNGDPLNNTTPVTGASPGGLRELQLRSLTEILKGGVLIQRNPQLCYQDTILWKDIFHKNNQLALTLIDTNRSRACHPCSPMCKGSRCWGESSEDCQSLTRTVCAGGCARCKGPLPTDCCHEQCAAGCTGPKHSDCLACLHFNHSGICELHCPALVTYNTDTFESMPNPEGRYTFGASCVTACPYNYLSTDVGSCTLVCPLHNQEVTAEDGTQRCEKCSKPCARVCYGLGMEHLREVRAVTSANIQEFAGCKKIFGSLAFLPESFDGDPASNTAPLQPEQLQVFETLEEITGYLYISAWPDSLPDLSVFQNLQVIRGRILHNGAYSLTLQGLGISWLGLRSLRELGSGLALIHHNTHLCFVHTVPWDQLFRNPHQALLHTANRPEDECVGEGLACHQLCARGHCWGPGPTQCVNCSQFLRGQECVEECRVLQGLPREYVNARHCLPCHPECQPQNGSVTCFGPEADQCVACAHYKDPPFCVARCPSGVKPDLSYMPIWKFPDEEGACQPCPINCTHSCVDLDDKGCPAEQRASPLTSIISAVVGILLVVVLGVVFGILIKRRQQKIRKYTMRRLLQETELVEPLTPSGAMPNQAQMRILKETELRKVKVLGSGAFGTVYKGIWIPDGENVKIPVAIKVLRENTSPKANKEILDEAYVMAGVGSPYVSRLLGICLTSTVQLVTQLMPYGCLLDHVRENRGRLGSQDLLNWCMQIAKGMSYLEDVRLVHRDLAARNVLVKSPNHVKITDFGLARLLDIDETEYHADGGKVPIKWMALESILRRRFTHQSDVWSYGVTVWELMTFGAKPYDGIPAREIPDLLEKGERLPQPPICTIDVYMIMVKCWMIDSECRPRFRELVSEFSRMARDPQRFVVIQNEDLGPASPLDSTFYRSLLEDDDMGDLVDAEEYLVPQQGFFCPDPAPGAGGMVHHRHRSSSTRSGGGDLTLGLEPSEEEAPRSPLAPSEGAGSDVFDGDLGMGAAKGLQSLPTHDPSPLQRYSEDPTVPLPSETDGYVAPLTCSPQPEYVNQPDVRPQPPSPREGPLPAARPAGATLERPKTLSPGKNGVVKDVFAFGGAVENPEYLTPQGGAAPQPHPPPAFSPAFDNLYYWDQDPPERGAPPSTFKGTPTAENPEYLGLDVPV

What is called inhibition is the drop in the measured response relative to a control, in per cent. As for `Clc1ccc(/C=C/c2nc(COc3ccc(COCCn4ccnn4)cc3)co2)cc1` [Example 2, 1-[2-(4-{2-[2-(E)-(4-Chloro-phenyl)-vinyl]-oxazol-4-ylmethoxy}-benzyloxy)-ethyl]-1H-[1,2,3]triazole], the inhibition at 1 µM was > 80%.

As to `Fc1cc(Cl)ccc1/C=C/c1nc(COc2ccc(COCCn3ccnn3)cc2)co1` [Example 1, 1-[2-(4-{2-[2-(E)-(4-Chloro-2-fluoro-phenyl)-vinyl]-oxazol-4-ylmethoxy}-benzyloxy)-ethyl]-1H-[1,2,3]triazole], the inhibition at 1 µM is 65 to 80%.

These data come from US7163953B2, “Benzylether derivatives” (Hoffmann-La Roche Inc., priority 2004, dated 2007).
